Structures can show the parent of a compound that is named as a salt.
Assay: Phase 1 dose escalation study in healthy post-menopausal women, treatment related AEs
Format: in vivo
Experimental: The subjects were 40-75 years old with BMI of 18.0-30 kg/m^2. Subjects having evidence of clinically relevant pathology, increased risk of stroke or of history venous thromboembolic events, or use of concomitant medication less than 14 days prior to admission to clinical research center (paracetamol allowed up to 3 days prior) were excluded. Dosing
The subjects were treated with placebo or at least one dose p.o., q.d. after a light breakfast for 7 days at dose levels of 200 mg, 500 mg, 750 mg and 1000 mg, respectively.

## CCNCCc1ccc(CN(CC)c2cc(OC)ccc2[C@@H]2CCc3cc(O)ccc3C2)cc1 [RAD1901, (6R)-6-(2-(N-(4-(2-(ethylamino)ethyl)benzyl)-N-ethylamino)-4-methoxyphenyl)-5,6,7,8-tetrahydronaphthalen-2-ol dihydrochloride]
750 mg, N = 8
  Nausea Gr2: 1 (13) n(%)
  Nausea Gr3: 0 n(%)
  Odynophagia Gr1: 0 n(%)
  Odynophagia Gr2: 0 n(%)
  Odynophagia Gr3: 0 n(%)
  Oesophageal pain Gr1: 1 (13) n(%)
  Oesophageal pain Gr2: 0 n(%)
  Oesophageal pain Gr3: 0 n(%)
  Salivary hypersecretion Gr1: 2 (25) n(%)
  Salivary hypersecretion Gr2: 0 n(%)
  Salivary hypersecretion Gr3: 0 n(%)
  Sensation of a foreign body Gr1: 0 n(%)
  Sensation of a foreign body Gr2: 0 n(%)
  Sensation of a foreign body Gr3: 0 n(%)
  Vomiting Gr1: 0 n(%)
  Vomiting Gr2: 2 (25) n(%)
  Vomiting Gr3: 0 n(%)
1000 mg, N = 7
  Abdominal discomfort Gr1: 0 n(%)
  Abdominal discomfort Gr2: 0 n(%)
  Abdominal discomfort Gr3: 0 n(%)
  Abdominal distension Gr1: 2 (29) n(%)
  Abdominal distension Gr2: 0 n(%)
  Abdominal distension Gr3: 0 n(%)
  Abdominal pain Gr1: 1 (14) n(%)
  Abdominal pain Gr2: 1 (14) n(%)
  Abdominal pain Gr3: 0 n(%)
  Diarrhoea Gr1: 3 (43) n(%)
  Diarrhoea Gr2: 1 (14) n(%)
  Diarrhoea Gr3: 0 n(%)
  Dizziness Gr1: 1 (14) n(%)
  Dizziness Gr2: 0 n(%)
  Dizziness Gr3: 0 n(%)
  Dyspepsia Gr1: 1 (14) n(%)
  Dyspepsia Gr2: 1 (14) n(%)
  Dyspepsia Gr3: 0 n(%)
  Dysphagia Gr1: 0 n(%)
  Dysphagia Gr2: 0 n(%)
  Dysphagia Gr3: 0 n(%)
  Flatulance Gr1: 0 n(%)
  Flatulance Gr2: 0 n(%)
  Flatulance Gr3: 0 n(%)
  Headache Gr1: 2 (29) n(%)
  Headache Gr2: 0 n(%)
  Headache Gr3: 0 n(%)
  Hiccups Gr1: 2 (29) n(%)
  Hiccups Gr2: 0 n(%)
  Hiccups Gr3: 0 n(%)
  Hot flush Gr1: 1 (14) n(%)
  Hot flush Gr2: 0 n(%)
  Hot flush Gr3: 0 n(%)
  Myalgia Gr1: 0 n(%)
  Myalgia Gr2: 0 n(%)
  Myalgia Gr3: 0 n(%)
  Nausea Gr1: 4 (57) n(%)
  Nausea Gr2: 2 (29) n(%)
  Nausea Gr3: 0 n(%)
  Odynophagia Gr1: 1 (14) n(%)
  Odynophagia Gr2: 1 (14) n(%)
  Odynophagia Gr3: 0 n(%)
  Oesophageal pain Gr1: 1 (14) n(%)
  Oesophageal pain Gr2: 1 (14) n(%)
  Oesophageal pain Gr3: 1 (14) n(%)
  Salivary hypersecretion Gr1: 2 (29) n(%)
  Salivary hypersecretion Gr2: 0 n(%)
  Salivary hypersecretion Gr3: 0 n(%)
  Sensation of a foreign body Gr1: 4 (57) n(%)
  Sensation of a foreign body Gr2: 0 n(%)
  Sensation of a foreign body Gr3: 0 n(%)
  Vomiting Gr1: 0 n(%)
  Vomiting Gr2: 3 (43) n(%)
  Vomiting Gr3: 0 n(%)
200-1000 mg p.o., q.d., 7 days
  dose limiting toxicities (DLT): No dose limiting toxicites (DLT) were observed
  maximum tolerated dose (MTD): not established
Total Active, N = 44
  Abdominal discomfort Gr1: 4 n(%)
  Abdominal discomfort Gr2: 1 (2) n(%)
  Abdominal discomfort Gr3: 0 n(%)
  Abdominal distension Gr1: 5 n(%)
  Abdominal distension Gr2: 1 (2) n(%)
  Abdominal distension Gr3: 0 n(%)
  Abdominal pain Gr1: 7 n(%)
  Abdominal pain Gr2: 3 (7) n(%)
  Abdominal pain Gr3: 0 n(%)
  Diarrhoea Gr1: 6 n(%)
  Diarrhoea Gr2: 1 (2) n(%)
  Diarrhoea Gr3: 0 n(%)
  Dizziness Gr1: 5 n(%)
  Dizziness Gr2: 0 n(%)
  Dizziness Gr3: 0 n(%)
  Dyspepsia Gr1: 13 n(%)
  Dyspepsia Gr2: 3 (7) n(%)
  Dyspepsia Gr3: 0 n(%)
  Dysphagia Gr1: 4 n(%)
  Dysphagia Gr2: 3 (7) n(%)
  Dysphagia Gr3: 0 n(%)
  Flatulance Gr1: 5 n(%)
  Flatulance Gr2: 0 n(%)
  Flatulance Gr3: 0 n(%)
  Headache Gr1: 9 n(%)
  Headache Gr2: 1 (2) n(%)
  Headache Gr3: 0 n(%)
  Hiccups Gr1: 9 n(%)
  Hiccups Gr2: 0 n(%)
  Hiccups Gr3: 0 n(%)
  Hot flush Gr1: 11 n(%)
  Hot flush Gr2: 0 n(%)
  Hot flush Gr3: 0 n(%)
  Myalgia Gr1: 3 n(%)
  Myalgia Gr2: 2 (5) n(%)
  Myalgia Gr3: 0 n(%)
  Nausea Gr1: 14 n(%)
  Nausea Gr2: 5 (11) n(%)
  Nausea Gr3: 0 n(%)
  Odynophagia Gr1: 4 n(%)
  Odynophagia Gr2: 2 (5) n(%)
  Odynophagia Gr3: 0 n(%)
  Oesophageal pain Gr1: 3 n(%)
  Oesophageal pain Gr2: 6 (14) n(%)
  Oesophageal pain Gr3: 1 (2) n(%)
  Salivary hypersecretion Gr1: 8 n(%)
  Salivary hypersecretion Gr2: 0 n(%)
  Salivary hypersecretion Gr3: 0 n(%)
  Sensation of a foreign body Gr1: 7 n(%)
  Sensation of a foreign body Gr2: 0 n(%)
  Sensation of a foreign body Gr3: 0 n(%)
  Vomiting Gr1: 3 n(%)
  Vomiting Gr2: 10 (23) n(%)
  Vomiting Gr3: 1 (2) n(%)
Total TEAE, N = 44
  Abdominal discomfort All: 5 n(%)
  Abdominal distension All: 6 n(%)
  Abdominal pain All: 10 n(%)
  Diarrhoea All: 7 n(%)
  Dizziness All: 5 n(%)
  Dyspepsia All: 16 n(%)
  Dysphagia All: 7 n(%)
  Flatulance All: 5 n(%)
  Headache All: 10 n(%)
  Hiccups All: 9 n(%)
  Hot flush All: 11 n(%)
  Myalgia All: 5 n(%)
  Nausea All: 19 n(%)
  Odynophagia All: 6 n(%)
  Oesophageal pain All: 10 n(%)
  Salivary hypersecretion All: 8 n(%)
  Sensation of a foreign body All: 7 n(%)
  Vomiting All: 14 n(%)

Source: patent US20240099996A1, “METHODS FOR TREATING CANCER” (Radius Pharmaceuticals, Inc., priority 2015, published 2024)
